In patent US11472803B2, “7-substituted 1-aryl-naphthyridine-3-carboxylic acid amides and use thereof” (Bayer Aktiengesellschaft, priority 2016, dated 2022):

Target: T1, human M2 receptor (Homo sapiens, UniProt P08172)
T1 construct: expressed in transfected cells; host or cells: CHO-DUKX (CHO-DUKX-M2-GIRK)
T1 sequence (P08172 1-466): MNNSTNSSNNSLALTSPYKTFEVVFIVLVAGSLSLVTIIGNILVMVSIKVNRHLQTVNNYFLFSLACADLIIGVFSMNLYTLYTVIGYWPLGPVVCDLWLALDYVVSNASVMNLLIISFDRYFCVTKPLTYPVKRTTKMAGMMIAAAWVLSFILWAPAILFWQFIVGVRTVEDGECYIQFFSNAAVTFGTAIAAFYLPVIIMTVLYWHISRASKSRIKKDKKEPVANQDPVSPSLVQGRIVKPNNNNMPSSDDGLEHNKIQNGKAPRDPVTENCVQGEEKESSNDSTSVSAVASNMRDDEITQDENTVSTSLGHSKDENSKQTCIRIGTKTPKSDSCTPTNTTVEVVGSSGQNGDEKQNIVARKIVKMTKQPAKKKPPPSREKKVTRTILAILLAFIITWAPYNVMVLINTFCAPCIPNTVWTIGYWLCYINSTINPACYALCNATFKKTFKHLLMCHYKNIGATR
Test: Functional M2-GIRK1/4 activation test: allosteric potency (EC50) and efficiency at EC20 acetylcholine
Assay type: cell-based
Conditions: CHO-DUKX-M2-GIRK cells; for EC50: voltage-sensitive dye, acetylcholine at EC20, in some cases mean of two or more determinations; for Emax / Efficiency: boosting of the acetylcholine effect at EC20 acetylcholine concentration
Procedure, shortened: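 Positive allosteric modulation measured as boosting of an EC20 acetylcholine response: hyperpolarization via GIRK1/4 in CHO-DUKX-M2-GIRK cells, monitored by membrane-potential dye fluorescence over 60 s after agonist, compound preadded. Hill-function fit gives EC50 and efficiency.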

Row | SMILES | EC50 | Emax | Efficiency
1 | C[C@@H](NC(=O)c1cn(-c2c(F)cc(F)cc2F)c2nc(N3C[C@@H](O)[C@H](O)C3)c(F)cc2c1=O)C(F)(F)F [Example 219, 7-[(3R,4R)-3,4-dihydroxypyrrolidin-1-yl]-6-fluoro-4-oxo-1-(2,4,6-trifluorophenyl)-N-[(2R)-1,1,1-trifluoropropan-2-yl]-1,4-dihydro-1,8-naphthyridine-3-carboxamide] | 0.0165 µM | 91% | 
2 | CC(C)(NC(=O)c1cn(-c2c(F)cc(F)cc2Cl)c2nc(N3C[C@@H](O)[C@H](O)C3)c(F)cc2c1=O)C(F)(F)F (single isomer, unassigned) [Example 50] | 0.0025 µM |  | 60%
3 | O=C(NC12CC(C1)C2)c1cn(-c2c(F)cccc2F)c2nc(N3C[C@@H](O)[C@H](O)C3)c(F)cc2c1=O [Example 5, N-(Bicyclo[1.1.1]pent-1-yl)-1-(2,6-difluorophenyl)-7-[(3R,4R)-3,4-dihydroxypyrrolidin-1-yl]-6-fluoro-4-oxo-1,4-dihydro-1,8-naphthyridine-3-carboxamide] | 0.069 µM | 99% | 
4 | CC[C@H](NC(=O)c1cn(-c2c(F)cc(F)cc2F)c2nc(N3CCOCC3)c(F)cc2c1=O)C(F)(F)F [Example 151, 6-Fluoro-7-(morpholin-4-yl)-4-oxo-N-[(2S)-1,1,1-trifluorobutan-2-yl]-1-(2,4,6-trifluoro-phenyl)-1,4-dihydro-1,8-naphthyridine-3-carboxamide] | 0.024 µM | 100% | 
5 | CC(C)(NC(=O)c1cn(-c2ncc(F)cc2F)c2nc(N3CC[C@H](O)C3)c(F)cc2c1=O)C(F)(F)F [Example 154, 1-(3,5-Difluoropyridin-2-yl)-6-fluoro-7-[(3S)-3-hydroxypyrrolidin-1-yl]-4-oxo-N-(1,1,1-tri-fluoro-2-methylpropan-2-yl)-1,4-dihydro-1,8-naphthyridine-3-carboxamide] | 0.097 µM | 100% | 
6 | CC(NC(=O)c1cn(-c2c(F)cc(F)cc2F)c2nc(N3CCOCC3)c(F)cc2c1=O)C(F)(F)C(F)(F)F (racemic) [Example 146, 6-Fluoro-7-(morpholin-4-yl)-4-oxo-N-[3,3,4,4,4-pentafluorobutan-2-yl]-1-(2,4,6-trifluoro-phenyl)-1,4-dihydro-1,8-naphthyridine-3-carboxamide] | 0.012 µM | 100% | 
7 | CC(C)C(NC(=O)c1cn(-c2c(F)cc(F)cc2F)c2nc(N3CC[C@H](O)C3)c(F)cc2c1=O)C(F)(F)F (single isomer, unassigned) [Example 139] | 0.0034 µM | 100% | 
8 | O=C(NC(C1CC1)C(F)(F)C(F)(F)F)c1cn(-c2c(F)cc(F)cc2F)c2nc(N3CC4(COC4)C3)c(F)cc2c1=O (single isomer, unassigned) [Example 206, N-[1-cyclopropyl-2,2,3,3,3-pentafluoropropyl]-6-fluoro-7-(2-oxa-6-azaspiro[3.3]hept-6-yl)-4-oxo-1-(2,4,6-trifluorophenyl)-1,4-dihydro-1,8-naphthyridine-3-carboxamide] | 0.01 µM |  | 100%
9 | C[C@H](NC(=O)c1cn(-c2c(F)cc(F)cc2F)c2nc(N3C[C@@H](O)[C@H](O)C3)c(F)cc2c1=O)c1ccccc1 [Example 167, 7-[(3R,4R)-3,4-Dihydroxypyrrolidin-1-yl]-6-fluoro-4-oxo-N-[(1S)-1-phenylethyl]-1-(2,4,6-tri-fluorophenyl)-1,4-dihydro-1,8-naphthyridine-3-carboxamide] | 0.0074 µM | 95% | 
10 | CCC(NC(=O)c1cn(-c2c(F)cc(F)cc2F)c2nc(N3C[C@@H](O)[C@@H](O)C3)c(F)cc2c1=O)C(C)C (stereo partly drawn) [Example 106, 7-[(3R,4S)-3,4-Dihydroxypyrrolidin-1-yl]-6-fluoro-V-[2-methylpentan-3-yl]-6-fluoro-4-oxo-1-(2,4,6-trifluorophenyl)-1,4-dihydro-1,8-naphthyridine-3-carboxamide] | 0.0072 µM |  | 100%
11 | CC(NC(=O)c1cn(-c2c(F)cc(F)cc2F)c2nc(N3CCC4(C3)NC(=O)N(C)C4=O)c(F)cc2c1=O)C(F)(F)C(F)(F)F (stereo not shown) [Example 234, 6-Fluoro-7-(3-methyl-2,4-dioxo-1,3,7-triazaspiro[4.4]non-7-yl)-4-oxo-N-[3,3,4,4,4-pentafluorobutan-2-yl]-1-(2,4,6-trifluorophenyl)-1,4-dihydro-1,8-naphthyridine-3-carboxamide] | 0.0097 µM | 90% | 
12 | COC[C@H](NC(=O)c1cn(-c2c(F)cc(F)cc2F)c2nc(N3CC[C@H](O)C3)c(F)cc2c1=O)C(C)C [Example 121, 6-Fluoro-7-[(3S)-3-hydroxypyrrolidin-1-yl]-N-[(2R)-1-methoxy-3-methylbutan-2-yl]-4-oxo-1-(2,4,6-trifluorophenyl)-1,4-dihydro-1,8-naphthyridine-3-carboxamide] | 0.125 µM | 100% | 
13 | O=C(N[C@@H](C1CC1)C(F)(F)F)c1cn(-c2c(F)cc(F)cc2F)c2nc(N3C[C@@H](O)[C@@H](O)C3)c(F)cc2c1=O [Example 101, N-[(1S)-1-Cyclopropyl-2,2,2-trifluoroethyl]-7-[(3R,4S)-3,4-dihydroxypyrrolidin-1-yl]-6-fluoro-4-oxo-1-(2,4,6-trifluorophenyl)-1,4-dihydro-1,8-naphthyridine-3-carboxamide] | 0.0135 µM | 100% | 
14 | CN(C)c1nc2c(cc1F)c(=O)c(C(=O)NC(C)(C)C(F)(F)F)cn2-c1c(F)cc(F)cc1F [Example 62, 7-(Dimethylamino)-6-fluoro-4-oxo-N-(1,1,1-trifluoro-2-methylpropan-2-yl)-1-(2,4,6-trifluoro-phenyl)-1,4-dihydro-1,8-naphthyridine-3-carboxamide] | 0.0041 µM | 88% | 
15 | CC[C@H](NC(=O)c1cn(-c2c(F)cc(F)cc2F)c2nc(N3CCCC[C@H]3CO)c(F)cc2c1=O)C(F)(F)F [Example 57, 6-Fluoro-7-[(2S)-2-(hydroxymethyl)piperidin-1-yl]-4-oxo-N-[(2S)-1,1,1-trifluorobutan-2-yl]-1-(2,4,6-trifluorophenyl)-1,4-dihydro-1,8-naphthyridine-3-carboxamide] | 0.0785 µM | 89% | 
16 | CN(C)c1nc2c(cc1F)c(=O)c(C(=O)NC(C)(C)C)cn2-c1c(F)cc(F)cc1F [Example 60, N-tert-Butyl-7-(dimethylamino)-6-fluoro-4-oxo-1-(2,4,6-trifluorophenyl)-1,4-dihydro-1,8-naphthyridine-3-carboxamide] | 0.0036 µM | 100% | 
17 | CN1CCN(c2nc3c(cc2F)c(=O)c(C(=O)N[C@@H](C2CC2)C(F)(F)F)cn3-c2c(F)cc(F)cc2F)CC1CO (stereo partly drawn) [Example 179, N-[(1S)-1-Cyclopropyl-2,2,2-trifluoroethyl]-6-fluoro-7-[3-(hydroxymethyl)-4-methylpiperazin-1-yl]-4-oxo-1-(2,4,6-trifluorophenyl)-1,4-dihydro-1,8-naphthyridine-3-carboxamide] | 0.027 µM | 100% | 
18 | CCC(COC(F)(F)F)NC(=O)c1cn(-c2c(F)cc(F)cc2F)c2nc(N3C[C@@H](O)[C@H](O)C3)c(F)cc2c1=O (stereo partly drawn) [Example 26, 7-[(3R,4R)-3,4-dihydroxypyrrolidin-1-yl]-6-fluoro-4-oxo-N-[(2)-1-(trifluoromethoxy)butan-2-yl]-1-(2,4,6-trifluorophenyl)-1,4-dihydro-1,8-naphthyridine-3-carboxamide] | 0.00403 µM | 100% | 
19 | C[C@@H](NC(=O)c1cn(-c2c(F)cc(F)cc2F)c2nc(N3C[C@@H](O)[C@H](O)C3)c(F)cc2c1=O)C1CC1 [Example 19, N-[(1R)-1-cyclopropylethyl]-7-[(3R,4R)-3,4-dihydroxypyrrolidin-1-yl]-6-fluoro-4-oxo-1-(2,4,6-trifluorophenyl)-1,4-dihydro-1,8-naphthyridine-3-carboxamide] | 0.016 µM | 98% | 
20 | CC(NC(=O)c1cn(-c2c(F)cc(F)cc2F)c2nc(N3CC[C@H](O)C3)c(F)cc2c1=O)C(F)(F)C(F)(F)F (single isomer, unassigned) [Example 114] | 0.007 µM |  | 94%
21 | CCC(NC(=O)c1cn(-c2c(F)cc(F)cc2F)c2nc(N3CC[C@H](O)C3)c(F)cc2c1=O)C(C)C (single isomer, unassigned) [Example 118] | 0.0028 µM |  | 100%
22 | CCC(C)(CC)NC(=O)c1cn(-c2c(F)cc(F)cc2F)c2nc(N3C[C@@H](O)[C@H](O)C3)c(F)cc2c1=O [Example 88, 7-[(3R,4R)-3,4-Dihydroxypyrrolidin-1-yl]-6-fluoro-N-(3-methylpentan-3-yl)-4-oxo-1-(2,4,6-trifluorophenyl)-1,4-dihydro-1,8-naphthyridine-3-carboxamide] | 0.0022 µM | 100% | 
23 | CC(C)[C@H](C)NC(=O)c1cn(-c2c(F)cc(F)cc2F)c2nc(N3C[C@@H](O)[C@@H](O)C3)c(F)cc2c1=O [Example 100, 7-[(3R,4S)-3,4-Dihydroxypyrrolidin-1-yl]-6-fluoro-N-[(2S)-3-methylbutan-2-yl]-4-oxo-1-(2,4,6-trifluorophenyl)-1,4-dihydro-1,8-naphthyridine-3-carboxamide] | 0.0315 µM | 100% | 
